The source made the active and inactive calls. No rule for the calls is given here.
The compounds below were run against Sentrin-specific protease 8 (Homo sapiens) (UniProt Q96LD8) (assay: SENP8 deneddylase blockers, concentration series – biochemical, Nedd8 protein substrate, dose response (AID 624322)). Settings: recombinant SENP8, Nedd8 substrate cleavage inhibition.
Sentrin-specific protease 8 (Homo sapiens), sequence (Q96LD8 whole entry, looked up): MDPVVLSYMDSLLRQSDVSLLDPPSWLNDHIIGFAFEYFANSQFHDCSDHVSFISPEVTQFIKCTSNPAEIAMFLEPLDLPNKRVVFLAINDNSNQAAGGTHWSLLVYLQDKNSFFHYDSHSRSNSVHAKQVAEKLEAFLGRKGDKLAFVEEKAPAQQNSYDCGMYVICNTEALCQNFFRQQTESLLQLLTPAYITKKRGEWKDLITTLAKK

Structure (SMILES) | IC50
Cc1ccc(S(=O)(=O)N[C@H](C(=O)N2CCC(C(=O)N[C@H](C(=O)O)c3ccccc3)CC2)C(C)C)cc1 | > 100 µM (inactive)
O=[N+]([O-])c1ccc(N2CCN(Cc3ccccc3)CC2)c2c1no[n+]2[O-] | 17.4 µM
O=C(Nc1c(-c2ccccc2)[nH][nH]c1=O)c1cnccn1 | 42.6 µM
O=[N+]([O-])c1cc(F)c2cccnc2c1O | 11.8 µM
CCCn1nc([N+](=O)[O-])c(C(C#N)c2nc3ccccc3o2)c(Cl)c1=O (stereo unspecified) | > 100 µM (inactive)
O=C(N/N=C/c1ccc([N+](=O)[O-])o1)c1ccccc1-n1cccc1 | > 100 µM (inactive)
Cn1c(Cc2ccccc2)nnc1SCC(=O)c1cccs1 | > 100 µM (inactive)
O=C(CCc1ccccc1)c1c(O)cc(O)cc1O | > 100 µM (inactive)
CC1=C(SCCC#N)S/C(=C2\SC(C)=C(SCCC#N)S2)S1 | 0.297 µM
O=c1[nH]c2ccccc2s1 | > 100 µM (inactive)
O=C(NC1C(=O)NNC1c1ccccc1)c1ccccc1 (stereo unspecified) | > 100 µM (inactive)
NC(=O)c1ccc(N=Cc2ccc([N+](=O)[O-])s2)cc1 | 2.48 µM
COc1ccc(-n2[nH]c(C)cc2=O)cc1 | > 100 µM (inactive)
O=C(O)CCCCCCCCCCCc1ccccc1 | > 100 µM (inactive)
COc1ccc(O)c(C(c2c(C)[nH][nH]c2=O)c2c(C)[nH][nH]c2=O)c1 | 7.17 µM
O=C(O)c1ccc(Cl)c(S(=O)(=O)NCc2ccco2)c1 | > 100 µM (inactive)

From PubChem BioAssay AID624322 (Sanford-Burnham Center for Chemical Genomics, 2012)
